From article PMC6514978, “Synthesis, Antibacterial Activities, Mode of Action and Acute Toxicity Studies of New Oxazolidinone-Fluoroquinolone Hybrids” (Molecules, 2019)
≈ marks a conversion by molar mass, not a printed value.

What was measured:
[1] = tested on: H. parasuis (34) clinical isolates; test: Susceptibility of clinical isolates (MIC); assay type: cell-based, Haemophilus parasuis; details: H. parasuis, 34 clinical isolates; for MIC50 / MIC90: Glaesserella parasuis; for MIC50: read-out: MIC50; for MIC90: read-out: MIC90
Experimental: (§1) Susceptibility testing of oxazolidinone-fluoroquinolone hybrids against various bacteria was performed by the broth microdilution method as outlined by the Clinical and Laboratory Standards Institute (CLSI). Three types of media, including cation-adjusted Mueller Hinton broth, Haemophilus Test Medium and cation-adjusted Mueller Hinton broth that contained 3%–5% lysed horse blood, were used to culture the corresponding bacteria. […] A final inoculum of 5 × 10^5 CFU/mL was used and plates were read after incubation for 16–24 h at 35 °C. […] Standard quality control strains (ATCC) were included throughout. Each determination was repeated in triplicate.

[2] = tested on: S. haemolyticus (32) clinical isolates; test: Susceptibility of clinical isolates (MIC); assay type: cell-based, Staphylococcus haemolyticus; details: for MIC50 / MIC90 / MIC: Staphylococcus haemolyticus, S. haemolyticus, 32 clinical isolates; for MIC50: read-out: MIC50; for MIC90: read-out: MIC90; for MIC: read-out: MIC Range
Experimental: as §1

MRSE = test: MIC against drug-resistant strain; assay type: cell-based, S. epidermidis; details: Staphylococcus epidermidis, read-out: MIC
Experimental: (§2) 6 standard strains and 3 clinical isolates were used to the preliminary evaluation of in vitro antibacterial activities of oxazolidinone-fluoroquinolone hybrids.
as §1

[3] = tested on: E. faecalis (72) clinical isolates; test: Susceptibility of clinical isolates (MIC); assay type: cell-based, Enterococcus faecalis; details: for MIC Range / MIC50 / MIC90: E. faecalis, 72 clinical isolates; for MIC50 / MIC90: Enterococcus faecalis
Experimental: as §1

[4] = tested on: S. epidermidis (10) clinical isolates; test: Susceptibility of clinical isolates (MIC); assay type: cell-based, Staphylococcus epidermidis; details: for MIC50 / MIC90 / MIC: Staphylococcus epidermidis, S. epidermidis, 10 clinical isolates; for MIC50: read-out: MIC50; for MIC90: read-out: MIC90; for MIC: read-out: MIC Range
Experimental: as §1

[5] = tested on: S. aureus (46) clinical isolates; test: Susceptibility of clinical isolates (MIC); assay type: cell-based, Staphylococcus aureus; details: for MIC50 / MIC90 / MIC: Staphylococcus aureus, S. aureus, 46 clinical isolates; for MIC50: read-out: MIC50; for MIC90: read-out: MIC90; for MIC: read-out: MIC Range
Experimental: as §1

[6] = tested on: E. faecium (47) clinical isolates; test: Susceptibility of clinical isolates (MIC); assay type: cell-based, Enterococcus faecium; details: for MIC Range / MIC50 / MIC90: E. faecium, 47 clinical isolates; for MIC50 / MIC90: Enterococcus faecium; for MIC50: read-out: MIC50; for MIC90: read-out: MIC90
Experimental: as §1

[7] = tested on: LZD-resistant E. faecalis; test: microbe, parasite or virus in culture; assay type: cell-based; details: Enterococcus faecalis
Experimental: as §2, §1

[8] = tested on: S. suis (9) clinical isolates; test: Susceptibility of clinical isolates (MIC); assay type: cell-based, Streptococcus suis; details: Streptococcus suis, S. suis, 9 clinical isolates; for MIC50: read-out: MIC50; for MIC90: read-out: MIC90; for MIC: read-out: MIC Range
Experimental: as §1

[9] = tested on: VAN and quinolone-resistant E. faecium; test: MIC against drug-resistant strain; assay type: cell-based; details: Enterococcus faecium; E. faecium, VAN and quinolone-resistant; read-out: MIC
Experimental: as §2, §1

[10] = tested on: LZD and quinolone-resistant E. faecium; test: MIC against drug-resistant strain; assay type: cell-based; details: Enterococcus faecium; E. faecium, LZD and quinolone-resistant; read-out: MIC
Experimental: as §2, §1

[11] = tested on: CIP-resistant S. haemolyticus; test: MIC against drug-resistant strain; assay type: cell-based; details: Staphylococcus haemolyticus; S. haemolyticus, CIP-resistant; read-out: MIC
Experimental: as §2, §1

MRSA = test: MIC against drug-resistant strain; assay type: cell-based; details: Staphylococcus aureus, read-out: MIC
Experimental: as §2, §1

[12] = tested on: VAN and quinolone-resistant S. pneumoniae; test: MIC against drug-resistant strain; assay type: cell-based; details: Streptococcus pneumoniae; S. pneumoniae, VAN and quinolone-resistant; read-out: MIC
Experimental: as §2, §1

CIP-resistant S. aureus = test: MIC against drug-resistant strain; assay type: cell-based; details: Staphylococcus aureus; S. aureus, CIP-resistant; read-out: MIC
Experimental: as §2, §1

[13] = tested on: S. pneumoniae (13) clinical isolates; test: Susceptibility of clinical isolates (MIC); assay type: cell-based, Streptococcus pneumoniae; details: for MIC50 / MIC90: Streptococcus pneumoniae; for MIC50: read-out: MIC50; for MIC90: read-out: MIC90
Experimental: as §1

[14] = S. haemolyticus clinical isolates, CLSI criteria
[15] = S. epidermidis clinical isolates, CLSI criteria
[16] = S. aureus clinical isolates, CLSI criteria
[17] = E. faecium clinical isolates, CLSI criteria
[18] = S. pneumoniae clinical isolates, CLSI criteria
[19] = S. pneumoniae, 13 clinical isolates

COc1c(N2CCNC(C)C2)c(F)cc2c(=O)c(C(=O)O)cn(C3CC3)c12 (centres unmarked) [GAFX, gatifloxacin]
MIC50 [1]: ≤ 0.0625 µg/mL | MIC90 [1]: 1 µg/mL (≈ 2.66 µM) | MIC Range [1]: ≤0.0625 to 1 µg/mL | CLSI %R (resistant) [2, 14]: 3.8% | CLSI %S (susceptible) [2, 14]: 96.2% | MIC50 [2]: 0.125 µg/mL (≈ 0.333 µM) | MIC90 [2]: 0.25 µg/mL (≈ 0.666 µM) | MIC [2]: 0.0625 to 2 µg/mL (≈ 0.166 to 5.33 µM) | MIC (MRSE): ≤ 0.0625 µg/mL | CLSI %S (susceptible) ([3]; E. faecalis clinical isolates, CLSI criteria): 94.6/- % | MIC Range [3]: 0.125 to 2 µg/mL | MIC50 [3]: 0.25 µg/mL (≈ 0.666 µM) | MIC90 [3]: 0.5 µg/mL (≈ 1.33 µM) | CLSI %R (resistant) [4, 15]: 50.0% | CLSI %S (susceptible) [4, 15]: 30.0% | MIC50 [4]: 1 µg/mL (≈ 2.66 µM) | MIC90 [4]: 2 µg/mL (≈ 5.33 µM) | MIC [4]: 0.125 to 2 µg/mL (≈ 0.333 to 5.33 µM) | CLSI %R (resistant) [5, 16]: 42.4% | CLSI %S (susceptible) [5, 16]: 45.5% | MIC50 [5]: 1 µg/mL (≈ 2.66 µM) | MIC90 [5]: 2 µg/mL (≈ 5.33 µM) | MIC [5]: 0.0625 to 2 µg/mL (≈ 0.166 to 5.33 µM) | CLSI %R (resistant) [6, 17]: 13.8% | CLSI %S (susceptible) [6, 17]: 86.2% | MIC Range [6]: 0.25 to 8 µg/mL | MIC50 [6]: 1 µg/mL (≈ 2.66 µM) | MIC90 [6]: 8 µg/mL (≈ 21.3 µM) | MIC [7]: 0.5 µg/mL (≈ 1.33 µM) | MIC50 [8]: ≤ 0.0625 µg/mL | MIC90 [8]: 4 µg/mL (≈ 10.7 µM) | MIC [8]: 0.0625 to 4 µg/mL (≈ 0.166 to 10.7 µM) | MIC [9]: 16 µg/mL (≈ 42.6 µM) | MIC [10]: 8 µg/mL (≈ 21.3 µM) | MIC [11]: 2 µg/mL (≈ 5.33 µM) | MIC (MRSA): 0.125 µg/mL (≈ 0.333 µM) | MIC [12]: > 32 µg/mL | MIC (CIP-resistant S. aureus): 2 µg/mL (≈ 5.33 µM) | CLSI %R (resistant) [13, 18]: 92.3% | CLSI %S (susceptible) [13, 18]: 7.7% | MIC Range [13, 19]: 4 to 32 µg/mL | MIC50 [13, 19]: 4 µg/mL (≈ 10.7 µM) | MIC90 [13, 19]: 32 µg/mL (≈ 85.2 µM)

CC1CCc2c(N3CCC(O)CC3)c(F)cc3c(=O)c(C(=O)O)cn1c23 (centres unmarked) [NDFX, nadifloxacin]
MIC50 [1]: ≤ 0.0625 µg/mL | MIC90 [1]: 1 µg/mL (≈ 2.77 µM) | MIC Range [1]: ≤0.0625 to 1 µg/mL | MIC50 [2]: ≤ 0.0625 µg/mL | MIC90 [2]: 0.5 µg/mL (≈ 1.39 µM) | MIC [2]: 0.0625 to 4 µg/mL (≈ 0.173 to 11.1 µM) | MIC (MRSE): 0.125 µg/mL (≈ 0.347 µM) | MIC Range [3]: 0.125 to 2 µg/mL | MIC50 [3]: 0.25 µg/mL (≈ 0.694 µM) | MIC90 [3]: 1 µg/mL (≈ 2.77 µM) | MIC50 [4]: 1 µg/mL (≈ 2.77 µM) | MIC90 [4]: 2 µg/mL (≈ 5.55 µM) | MIC [4]: 0.0625 to 2 µg/mL (≈ 0.173 to 5.55 µM) | MIC50 [5]: 0.5 µg/mL (≈ 1.39 µM) | MIC90 [5]: 0.5 µg/mL (≈ 1.39 µM) | MIC [5]: 0.0625 to 2 µg/mL (≈ 0.173 to 5.55 µM) | MIC Range [6]: 0.5 to 16 µg/mL | MIC50 [6]: 2 µg/mL (≈ 5.55 µM) | MIC90 [6]: 8 µg/mL (≈ 22.2 µM) | MIC [7]: 1 µg/mL (≈ 2.77 µM) | MIC50 [8]: ≤ 0.0625 µg/mL | MIC90 [8]: 2 µg/mL (≈ 5.55 µM) | MIC [8]: 0.0625 to 4 µg/mL (≈ 0.173 to 11.1 µM) | MIC [9]: 32 µg/mL (≈ 88.8 µM) | MIC [10]: 16 µg/mL (≈ 44.4 µM) | MIC [11]: 4 µg/mL (≈ 11.1 µM) | MIC (MRSA): ≤ 0.0625 µg/mL | MIC [12]: > 32 µg/mL | MIC (CIP-resistant S. aureus): 0.5 µg/mL (≈ 1.39 µM) | MIC50 [13, 19]: 16 µg/mL (≈ 44.4 µM) | MIC90 [13, 19]: > 32 µg/mL
